The text below walks through data of patent US8629175B2, “Functional food additives” (priority 2009, dated 2014).

Assay [1] can be described thus: antioxidant (antiradical) activity using DPPH radical. As to the method: The antioxidant (AO) activity of DAG-DHLA was determined using DPPH. radical following the published methods (Brand-Williams, W. et al. (1995). Lebensm. Wiss. U.-Technol. 28:25-30).
Antioxidant solution in toluene (0.1 mL) was added to 3.9 mL of a 6×10^−5 mol/L toluene DPPH. solution. Absorbance was determined at 515 nm at 0 min, and every 30 min until the reaction reached a plateau. For each DAG-DHLA concentration tested, the reaction kinetics was plotted. From this graph, the percentage of DPPH. remaining at the steady state was recorded and the values transferred onto another graph showing the percentage of residual DPPH. at the steady state as a function of the molar ratio of antioxidant to DPPH..
A general note: The DPPH test is a chemical assay of radical scavenging.

Assay [2] is described as follows: acute food intake experiment in rats. Format: in vivo. On the procedure:
An acute experiment with rats has been conducted recently after complying with Swedish Ethical regulations. Seven groups of rats (n=4-5) were given an acute test dose (100-200 mg/kg) of the control vehicle (rapeseed oil) and test conjugates. Part of the results is shown here in FIG. 4.

For the compound `CCCCCCCC/C=C\CCCCCCCC(=O)OCC(COC(=O)CCCCCCC/C=C\CCCCCCCC)OC(=O)CCCCC(S)CCS` (stereo not drawn) [compound 2, 1,3-Dioleoyl-2-dihydrolipoate-sn-glycerol], in assay [1] (6×10^−5 mol/L DPPH. in toluene, steady state, 515 nm), the “EC50 (Efficient concentration), amount of antioxidant necessary to decrease the initial DPPH. concentration by 50%” value is 0.21 (mol/L) AO/(mol/L) DPPH. In assay [1] (DPPH. in toluene), the “Number of reduced DPPH. (1/EC100), DPPH. moles reduced by one mole of antioxidant” value is on record as 2.34. Besides, the Kinetic behaviour result in assay [1] (reaction with DPPH. in toluene, absorbance at 515 nm) is reported as “Rapid”. Besides, the acute food intake result in assay [2] (acute test dose 200 mg/kg, after 4 hours, compared to vehicle (rapeseed oil), FIG. 4) is reported as “seems to block food intake”.
With `CCCCCCCC/C=C\CCCCCCCC(=O)OCC(COC(=O)CCCCCCC/C=C\CCCCCCCC)OC(=O)CCCCC1CCSS1` (stereo not drawn) [compound 1, 1,3-Dioleoyl-2-lipoyl-sn-glycerol], in assay [1] (DPPH. in toluene, in parallel, compared with DAG-DHLA), the “antioxidant activity (in words)” value was “negligible antioxidant activity”. Also, in assay [2] (acute test dose (100-200 mg/kg), compared with the DAG-DHLA result), the acute food intake entry is reported as “Rather similar result”.
